For assay [1], the target named is T1, human EGFR (d746-750/T790M/C797S) (Homo sapiens, UniProt P00533, C797S/DEL746-750/T790M).
T1 construct: human EGFR (d746-750/T790M/C797S) (668-end, SignalChem); purchased SignalChem
Description: EGFR C797S enzyme inhibition activity (ADP-Glo kinase assay). Format: biochemical. To be noted: purified enzyme 3 ng, ATP 5 μM, 25° C., 1 hour, luminescence; read-out: EGFR DTC Enzyme IC50. Summed up:
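Kinase construct 668-end (3 ng) was incubated with 5 μM ATP and 0.2 μg substrate in Tris pH 7.4 buffer for 1 h at 25° C. ADP-Glo luminescence was read over 12 final compound concentrations from 10 μM down to 0. IC50 was taken as 50% inhibition relative to the solvent control.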
(In general: ADP-Glo first removes unused ATP, then detects ADP through luciferase.)

In assay [2] the test system is Ba/F3 expressing EGFR Del19/T790M/C797S mutations. Description: Inhibitory activity on proliferation of Ba/F3 cell overexpressing EGFR C797S (Cell Titer-Glo). To be noted: Mus musculus, BaF3; 72 hours treatment, cell growth rate vs control; read-out: Ba/F3 (EGFR DTC) GI50. Format: cell-based. Summed up:
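Ba/F3 cells with EGFR Del19/T790M/C797S in RPMI-1640 + 10% FBS were seeded (3000/well) 24 h before 72 h compound exposure at 37 °C. Compounds were tested in a 12-point 3-fold series, final […]–5 μM. CellTiter-Glo luminescence gave growth % versus control, from which GI50 was derived.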
In general terms: Cellular ATP, detected with luciferase, serves as a proxy for viable cell number.

In general, pIC50 refers to the IC50 on a negative log10 scale, so that one unit is a factor of ten.

pIC50: −log10 of the molar value.

T1 sequence (P00533 with tags, fused parts or gaps DEL746-750/T790M/C797S): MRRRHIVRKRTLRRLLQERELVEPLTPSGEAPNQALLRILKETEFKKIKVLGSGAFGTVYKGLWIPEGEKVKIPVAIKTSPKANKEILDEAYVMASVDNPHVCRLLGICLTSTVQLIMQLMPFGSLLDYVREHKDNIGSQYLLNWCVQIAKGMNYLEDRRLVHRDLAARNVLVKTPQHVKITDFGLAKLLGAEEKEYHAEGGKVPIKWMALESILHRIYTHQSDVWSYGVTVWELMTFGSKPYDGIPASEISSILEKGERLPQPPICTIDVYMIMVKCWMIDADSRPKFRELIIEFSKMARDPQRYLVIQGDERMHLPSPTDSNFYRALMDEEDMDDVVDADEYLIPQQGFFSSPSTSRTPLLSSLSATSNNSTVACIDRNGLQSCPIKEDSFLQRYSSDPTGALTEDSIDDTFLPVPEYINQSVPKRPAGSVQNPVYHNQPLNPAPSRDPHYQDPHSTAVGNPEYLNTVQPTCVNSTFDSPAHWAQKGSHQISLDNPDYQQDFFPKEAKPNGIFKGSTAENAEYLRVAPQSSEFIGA

As to `CC(C)Nc1cc(Nc2ccnc(-c3cnn(S(=O)(=O)C4CC4)c3)n2)ncc1C(=O)NCC1CCCC1` [Example 56, N-(cyclopentylmethyl)-6-((2-(1-(cyclopropylsulfonyl)-1H-pyrazol-4-yl)pyrimidin-4-yl)amino)-4-(isopropylamino)-nicotinamide], in assay [1], the negative logarithm of the IC50 (pIC50) is 6.30 to 7.30. Besides, in assay [2], the GI50 is 500 to 5000 nM.

Turning to `CC(C)Nc1cc(Nc2ccnc(-c3cnn(S(=O)(=O)C4CC4)c3)n2)ncc1C(=O)NCCCO` [Example 57, 6-((2-(1-(cyclopropylsulfonyl)-1H-pyrazol-4-yl)pyrimidin-4-yl)amino)-N-(3-hydroxypropyl)-4-(isopropylamino)nico-tinamide], in assay [1], the negative-log IC50 (pIC50) is over 7.30. For the same molecule, the GI50 in assay [2] lay in the range of 500 to 5000 nM.

On to `CC(C)Nc1cc(Nc2ccnc(-c3cnn(S(=O)(=O)C4CC4)c3)n2)ncc1C(=O)NCCCN(C)C(=O)OC(C)(C)C` [Example 58, tert-butyl (3-(6-((2-(1-(cyclopropylsulfonyl)-1H-pyrazol-4-yl)pyrimidin-4-yl)amino)-4-(isopropylamino)nico-tinamido)propyl)(meth-yl)carbamate], for which the pIC50 in assay [1] is 6.30 to 7.30. Also, the GI50 in assay [2] fell in the range of 500 to 5000 nM.

Consider `CC(C)Nc1cc(Nc2ccnc(-c3cnn(S(=O)(=O)C4CC4)c3)n2)ncc1C(=O)NCc1ccc(F)cc1` [Example 61, 6-((2-(1-(cyclopropylsulfonyl)-1H-pyrazol-4-yl)pyrimidin-4-yl)amino)-N-(4-fluorobenzyl)-4-(isopropylamino)nico-tinamide], for which, in assay [1], the negative logarithm of the IC50 (pIC50) was 6.30 to 7.30. Moreover, the GI50 in assay [2] is 500 to 5000 nM.

On to `CC(C)Nc1cc(Nc2ccnc(-c3cnn(S(=O)(=O)C4CC4)c3)n2)ncc1C(=O)NCC1CCCO1` (stereo not shown) [Example 62, 6-((2-(1-(cyclopropylsulfonyl)-1H-pyrazol-4-yl)pyrimidin-4-yl)amino)-4-(isopropylamino)-N-((tetrahydrofuran-2-yl)methyl)nicotin-amide], for which the pIC50 in assay [1] is over 7.30. Further, in assay [2], the GI50 was under 500 nM.

For `CC(C)Nc1cc(Nc2ccnc(-c3cnn(S(=O)(=O)C4CC4)c3)n2)ncc1C(=O)NCCCS(C)(=O)=O` [Example 64, 6-((2-(1-(cyclopropylsulfonyl)-1H-pyrazol-4-yl)pyrimidin-4-yl)amino)-4-(isopropylamino)-N-(3-(methyl-sulfonyl)propyl) nicotinamide], the negative-log IC50 (pIC50) in assay [1] is 6.30 to 7.30. In addition, the GI50 in assay [2] lay within 500 to 5000 nM.

`CC(C)Nc1cc(Nc2ccnc(-c3cnn(S(=O)(=O)C4CC4)c3)n2)ncc1C(=O)N1CC[C@H](CN2CCN(C)CC2)C1` [Example 65, (R)-(6-((2-(1-(cyclopropylsulfonyl)-1H-pyrazol-4-yl)pyrimidin-4-yl)amino)-4-(isopropylamino)pyri-din-3-)(3-((4-methylpiperazin-1-yl)methyl)pyrrolidin-1-yl)methanone]: the negative logarithm of the IC50 (pIC50) in assay [1] is over 7.30. Further, the GI50 in assay [2] fell in the range of 500 to 5000 nM.

`CC(C)Nc1cc(Nc2ccnc(-c3cnn(S(=O)(=O)C4CC4)c3)n2)ncc1C(=O)N1CC2(C1)CN(S(C)(=O)=O)C2` [Example 66, (6-((2-(1-(cyclopropylsulfonyl)-1H-pyrazol-4-yl)pyrimidin-4-yl)amino)-4-(isopropylamino)pyri-din-3-yl)(6-(methylsulfonyl)-2,6-diazaspiro[3.3]heptan-2-yl)methanone]: the pIC50 in assay [1] was over 7.30. The GI50 in assay [2] lay within 500 to 5000 nM.

As for `CC(C)Nc1cc(Nc2ccnc(-c3cnn(S(=O)(=O)C4CC4)c3)n2)ncc1C(=O)NCCN1CCCC1` [Example 68, 6-((2-(1-(cyclopropylsulfonyl)-1H-pyrazol-4-yl)pyrimidin-4-yl)amino)-4-(isopropylamino)-N-(2-(pyrrolidin-1-yl)ethyl)nicotinamide], the pIC50 in assay [1] was over 7.30. Further, in assay [2], the GI50 lay in the range of 500 to 5000 nM.

`CC(C)Nc1cc(Nc2ccnc(-c3cnn(S(=O)(=O)C4CC4)c3)n2)ncc1C(=O)NC(CN(C)C)c1ccccc1` (stereo not shown) [Example 70, 6-((2-(1-(cyclopropylsulfonyl)-1H-pyrazol-4-yl)pyrimidin-4-yl)amino)-N-(2-(dimethylamino)-1-phenylethyl)-4-(isopropylamino)nico-tinamide]: the pIC50 in assay [1] was over 7.30. Further, the GI50 in assay [2] lay in the range of 500 to 5000 nM.

For `CC(C)Nc1cc(Nc2ccnc(-c3cnn(S(=O)(=O)C4CC4)c3)n2)ncc1C(=O)N1C[C@H](CS(C)(=O)=O)[C@H]1C` [Example 71, (6-((2-(1-(cyclopropylsulfonyl)-1H-pyrazol-4-yl)pyrimidin-4-yl)amino)-4-(isopropylamino)pyri-din-3-yl)((2R,3S)-2-methyl-3-((methylsulfonyl)meth-yl)azetidin-1-yl)methanone], the negative logarithm of the IC50 (pIC50) in assay [1] is over 7.30. The GI50 in assay [2] was in the range of 500 to 5000 nM.

As to `CC(C)Nc1cc(Nc2ccnc(-c3cnn(S(=O)(=O)C4CC4)c3)n2)ncc1C(=O)NCC#N` [Example 72, N-(cyanomethyl)-6-((2-(1-(cyclopropylsulfonyl)-1H-pyrazol-4-yl)pyrimidin-4-yl)amino)-4-(isoporpylamino)nico-tinamide], the pIC50 in assay [1] is over 7.30. Further, the GI50 in assay [2] was under 500 nM.

Take `CC(C)Nc1cc(Nc2ccnc(-c3cnn(S(=O)(=O)C4CC4)c3)n2)ncc1C(=O)NCCS(=O)(=O)N(C)C` [Example 73, 6-((2-(1-(cyclopropylsulfonyl)-1H-pyrazol-4-yl)pyrimidin-4-yl)amino)-N-(2-(N,N-dimethylsulfamoyl)eth-yl)-4-(isopropylamino)nico-tinamide]: the pIC50 in assay [1] was over 7.30. Moreover, the GI50 in assay [2] fell in the range of 500 to 5000 nM.

Regarding `CC(C)Nc1cc(Nc2ccnc(-c3cnn(S(=O)(=O)C4CC4)c3)n2)ncc1C(=O)NCCS(=O)(=O)C(C)C` [Example 74, 6-((2-(1-(cyclopropylsulfonyl)-1H-pyrazol-4-yl)pyrimidin-4-yl)amino)-4-(isopropylamino)-N-(2-(isopropylsulfonyl)eth-yl)nicotinamide], the pIC50 in assay [1] was over 7.30. In assay [2], the GI50 was 500 to 5000 nM.

For `CC(C)Nc1cc(Nc2ccnc(-c3cnn(S(=O)(=O)C4CC4)c3)n2)ncc1C(=O)NC[C@@H]1CCCN1` [Example 76, (S)-6-((2-(1-(cyclopropylsulfonyl)-1H-pyrazol-4-yl)pyrimidin-4-yl)amino)-4-(isopropylamino)-N-(pyrrolidin-2-ylmethyl)nicotinamide], in assay [1], the pIC50 was over 7.30. For the same molecule, the GI50 in assay [2] lay within 500 to 5000 nM.

In the case of `CC(C)Nc1cc(Nc2ccnc(-c3cnn(S(=O)(=O)C4CC4)c3)n2)ncc1C(=O)NCC(F)(F)F` [Example 78, 6-((2-(1-(cyclopropylsulfonyl)-1H-pyrazol-4-yl)pyrimidin-4-yl)amino)-4-(isopropylamino)-N-(2,2,2-trifluoroethyl)nicotin-amide], in assay [1], the pIC50 is over 7.30. In assay [2], the GI50 was in the range of 500 to 5000 nM.

For the molecule `CC(C)Nc1cc(Nc2ccnc(-c3cnn(S(=O)(=O)C4CC4)c3)n2)ncc1C(=O)N[C@@H](C(C)C)C(F)(F)F` [Example 79, (S)-6-((2-(1-(cyclopropylsulfonyl)-1H-pyrazol-4-yl)pyrimidin-4-yl)amino)-4-(isopropylamino)-N-(1,1,1-trifluoro-3-methylbutan-2-yl)nicotinamide], the pIC50 in assay [1] was 6.30 to 7.30. Also, the GI50 in assay [2] is 500 to 5000 nM.

As to `C[C@H]1CCOc2c(cnn2C)-c2nccc(n2)Nc2cc(c(C(=O)NCC#N)cn2)N1` [Example 80, (S)-N-(cyanomethyl)-1^1,6-dimethyl-1^1H-9-oxa-3,5-diaza-2(2,4)-pyrimidina-4(2,4)-pyridina-1(4,5)-pyrazolacyclo-nonaphane-4^5-carboxamide], the pIC50 in assay [1] was over 7.30. For the same molecule, the GI50 in assay [2] was under 500 nM.

Turning to `CC(C)Nc1cc(Nc2ccnc(-c3cnn(S(=O)(=O)C4CC4)c3)n2)ncc1C(=O)NCCCC(F)(F)F` [Example 81, 6-((2-(1-(cyclopropylsulfonyl)-1H-pyrazol-4-yl)pyrimidin-4-yl)amino)-4-(isopropylamino)-N-(4,4,4-trifluorobutyl)nicotin-amide], the pIC50 in assay [1] was over 7.30. Besides, the GI50 in assay [2] is under 500 nM.

Take `CC(C)Nc1cc(Nc2ccnc(-c3cnn(S(=O)(=O)C4CC4)c3)n2)ncc1C(=O)NCCC(F)(F)F` [Example 82, 6-((2-(1-(cyclopropylsulfonyl)-1H-pyrazol-4-yl)pyrimidin-4-yl)amino)-4-(isopropylamino)-N-(3,3,3-trifluoropropyl)nico-tinamide]: the negative-log IC50 (pIC50) in assay [1] is over 7.30. Besides, in assay [2], the GI50 was under 500 nM.

As to `CC(C)Nc1cc(Nc2ccnc(-c3cnn(S(=O)(=O)C4CC4)c3)n2)ncc1C(=O)NCCN1CCOCC1` [Example 83, 6-((2-(1-(cyclopropylsulfonyl)-1H-pyrazol-4-yl)pyrimidin-4-yl)amino)-4-(isopropylamino)-N-(2-morpholinoethyl)nico-tinamide], the pIC50 in assay [1] is over 7.30. Besides, the GI50 in assay [2] was under 500 nM.

Consider `C[C@H]1CCOc2c(cnn2C)-c2nccc(n2)Nc2cc(c(C(=O)NCC3CCCC3)cn2)N1` [Example 86, (S)-N-(cyclopentylmethyl)-1^1,6-dimethyl-1^1H-9-oxa-3,5-diaza-2(2,4)-pyrimidina-4(2,4)-pyridina-1(4,5)-pyrazolacyclo-nonaphane-4^5-carboxamide], for which the pIC50 in assay [1] is over 7.30. Besides, in assay [2], the GI50 is under 500 nM.

On to `CC(C)Nc1cc(Nc2ccnc(-c3cnn(S(=O)(=O)C4CC4)c3)n2)ncc1C(=O)NC1CC(F)(F)C1` [Example 99, 6-((2-(1-(cyclopropylsulfonyl)-1H-pyrazol-4-yL)pyrimidin-4-yl)amino)-N-(3,3-difluorocyclobutyl)-4-(isopropylamino)nico-tinamide], for which, in assay [1], the negative-log IC50 (pIC50) is 6.30 to 7.30. Also, the GI50 in assay [2] was under 500 nM.

These data come from patent US20250345329A1, “HETEROARYL DERIVATIVE COMPOUND AND USES THEREOF” (VORONOI, INC., priority 2022, published 2025).
